Test results from patent publication US8952024B2, “Herbicidal pyrimidone derivatives” (E I du Pont de Nemours and Company, priority 2009, dated 2015).

Key:
Assay in all cases: Test B pre-/postemergence plant response
Type in all cases: in vivo
[1] = system: bermudagrass (Cynodon dactylon)
Outline: (§1)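 Compound in solvent + surfactant applied pre-em (loam/sand) or post-em (plants 2–18 cm, peat medium); greenhouse hold 13–15 days; visual 0–100 control score.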

[2] = system: downy bromegrass (Bromus tectorum)
Outline: as §1

[3] = system: woolly cupgrass (Eriochloa villosa)
Outline: as §1

[4] = system: giant foxtail (Setaria faberii)
Outline: as §1

[5] = system: johnsongrass (Sorghum halepense)
Outline: as §1

kochia (Kochia scoparia) = conditions: Preemergence
Outline: as §1

[6] = system: yellow nutsedge (Cyperus esculentus)
Outline: as §1

[7] = system: Italian ryegrass (Lolium multiflorum)
Outline: as §1

[8] = system: large crabgrass (Digitaria sanguinalis)
Outline: as §1

[9] = system: goosegrass (Eleusine indica)
Outline: as §1

[10] = system: blackgrass (Alopecurus myosuroides)
Outline: as §1

[11] = system: Surinam grass (Brachiaria decumbens)
Outline: as §1

[12] = system: ragweed (common ragweed, Ambrosia elatior)
Outline: as §1

corn (Zea mays) = system: corn (Zea mays)
Outline: as §1

[13] = system: velvetleaf (Abutilon theophrasti)
Outline: as §1

[14] = system: green foxtail (Setaria viridis)
Outline: as §1

[15] = system: lambsquarters (Chenopodium album)
Outline: as §1

[16] = 250 g ai/ha, Preemergence, 0 to 100 scale
[17] = Postemergence, 31 g ai/ha, scale 0 to 100 (0 no effect, 100 complete control)
[18] = Postemergence, 62 g ai/ha, scale 0 (no effect) to 100 (complete control), 13 to 15 days
[19] = Postemergence, 250 g ai/ha, scale 0 to 100
[20] = Preemergence, 31 g ai/ha, scale 0 to 100 (0 no effect, 100 complete control)
[21] = Preemergence, 62 g ai/ha, scale 0 to 100, 0 no effect, 100 complete control
[22] = Preemergence, 125 g ai/ha, 0 to 100 scale
[23] = Postemergence, 125 g ai/ha, visual rating after 13 to 15 days, scale 0 (no effect) to 100 (complete control)

Compound: O=C1CCCC([O-])=C1C(=O)c1cnc(-c2ccccc2)n(-c2ccccc2)c1=O.[K+] [Compound 14]
- Plant response rating, Bermudagrass [1, 16]: 100
- Plant response rating, Bermudagrass [1, 17]: 70
- Plant response rating, Bermudagrass [1, 18]: 70
- Plant response rating, Bermudagrass ([1]; Postemergence, 125 g ai/ha, scale 0 to 100 (0 no effect, 100 complete control), 13 to 15 days): 80
- Bermudagrass plant response rating [1, 19]: 80
- Plant response rating, Bermudagrass [1, 20]: 70
- Plant response rating, Bermudagrass [1, 21]: 75
- Bermudagrass plant response rating [1, 22]: 100
- Plant response rating, Bromegrass, Downy [2, 16]: 0
- Plant response rating, Bromegrass, Downy [2, 17]: 10
- Plant response rating, Bromegrass, Downy [2, 18]: 30
- Plant response rating, Bromegrass, Downy [2, 23]: 50
- Bromegrass, Downy plant response rating [2, 19]: 70
- Plant response rating, Bromegrass, Downy [2, 20]: 0
- Plant response rating, Bromegrass, Downy [2, 21]: 0
- Bromegrass, Downy plant response rating [2, 22]: 0
- Plant response rating, Cupgrass, Woolly [3, 16]: 70
- Plant response rating, Cupgrass, Woolly [3, 17]: 50
- Plant response rating, Cupgrass, Woolly [3, 18]: 80
- Plant response rating, Cupgrass, Woolly [3, 23]: 80
- Cupgrass, Woolly plant response rating [3, 19]: 80
- Plant response rating, Cupgrass, Woolly [3, 20]: 0
- Plant response rating, Cupgrass, Woolly [3, 21]: 5
- Cupgrass, Woolly plant response rating [3, 22]: 50
- Plant response rating, Foxtail, Giant [4, 16]: 90
- Plant response rating, Foxtail, Giant [4, 17]: 50
- Plant response rating, Foxtail, Giant [4, 18]: 70
- Plant response rating, Foxtail, Giant [4, 23]: 80
- Foxtail, Giant plant response rating [4, 19]: 95
- Plant response rating, Foxtail, Giant [4, 20]: 0
- Plant response rating, Foxtail, Giant [4, 21]: 10
- Foxtail, Giant plant response rating [4, 22]: 75
- Plant response rating, Johnsongrass [5, 16]: 95
- Plant response rating, Johnsongrass [5, 17]: 45
- Plant response rating, Johnsongrass [5, 18]: 80
- Plant response rating, Johnsongrass [5, 23]: 80
- Johnsongrass plant response rating [5, 19]: 80
- Plant response rating, Johnsongrass [5, 20]: 5
- Plant response rating, Johnsongrass [5, 21]: 30
- Johnsongrass plant response rating [5, 22]: 80
- Plant response rating, Kochia (kochia (Kochia scoparia); 250 g ai/ha, 0 to 100 scale): 100
- Plant response rating, Kochia (kochia (Kochia scoparia); 31 g ai/ha, scale 0 to 100 (0 no effect, 100 complete control)): 85
- Plant response rating, Kochia (kochia (Kochia scoparia); 62 g ai/ha, scale 0 to 100, 0 no effect, 100 complete control): 100
- Kochia plant response rating (kochia (Kochia scoparia); 125 g ai/ha, 0 to 100 scale): 100
- Plant response rating, Nutsedge, Yellow [6, 16]: 85
- Plant response rating, Nutsedge, Yellow [6, 17]: 20
- Plant response rating, Nutsedge, Yellow [6, 18]: 30
- Plant response rating, Nutsedge, Yellow [6, 23]: 30
- Nutsedge, Yellow plant response rating [6, 19]: 50
- Plant response rating, Nutsedge, Yellow [6, 20]: 0
- Plant response rating, Nutsedge, Yellow [6, 21]: 30
- Nutsedge, Yellow plant response rating [6, 22]: 40
- Plant response rating, Ryegrass, Italian [7, 16]: 0
- Plant response rating, Ryegrass, Italian [7, 17]: 0
- Plant response rating, Ryegrass, Italian [7, 18]: 5
- Plant response rating, Ryegrass, Italian [7, 23]: 5
- Ryegrass, Italian plant response rating [7, 19]: 50
- Plant response rating, Ryegrass, Italian [7, 20]: 0
- Plant response rating, Ryegrass, Italian [7, 21]: 0
- Ryegrass, Italian plant response rating [7, 22]: 0
- Plant response rating, Crabgrass, Large [8, 16]: 100
- Plant response rating, Crabgrass, Large [8, 17]: 50
- Plant response rating, Crabgrass, Large [8, 18]: 55
- Plant response rating, Crabgrass, Large [8, 23]: 85
- Crabgrass, Large plant response rating [8, 19]: 85
- Plant response rating, Crabgrass, Large [8, 20]: 5
- Plant response rating, Crabgrass, Large [8, 21]: 50
- Crabgrass, Large plant response rating [8, 22]: 100
- Plant response rating, Goosegrass [9, 16]: 100
- Plant response rating, Goosegrass [9, 17]: 80
- Plant response rating, Goosegrass [9, 18]: 80
- Plant response rating, Goosegrass [9, 23]: 80
- Goosegrass plant response rating [9, 19]: 85
- Plant response rating, Goosegrass [9, 20]: 70
- Goosegrass plant response rating [9, 22]: 98
- Plant response rating, Blackgrass [10, 16]: 0
- Plant response rating, Blackgrass [10, 17]: 0
- Plant response rating, Blackgrass [10, 18]: 0
- Plant response rating, Blackgrass [10, 23]: 5
- Blackgrass plant response rating [10, 19]: 5
- Plant response rating, Blackgrass [10, 20]: 0
- Plant response rating, Blackgrass [10, 21]: 0
- Blackgrass plant response rating [10, 22]: 0
- Plant response rating, Surinam Grass [11, 16]: 80
- Plant response rating, Surinam Grass [11, 17]: 40
- Plant response rating, Surinam Grass [11, 18]: 50
- Plant response rating, Surinam Grass [11, 23]: 50
- Surinam Grass plant response rating [11, 19]: 55
- Plant response rating, Surinam Grass [11, 20]: 0
- Plant response rating, Surinam Grass [11, 21]: 5
- Surinam Grass plant response rating [11, 22]: 60
- Plant response rating, Ragweed [12, 16]: 90
- Plant response rating, Ragweed [12, 17]: 80
- Plant response rating, Ragweed [12, 18]: 80
- Plant response rating, Ragweed [12, 23]: 85
- Ragweed plant response rating [12, 19]: 98
- Plant response rating, Ragweed [12, 20]: 70
- Plant response rating, Ragweed [12, 21]: 90
- Ragweed plant response rating [12, 22]: 90
- Plant response rating, Corn (corn (Zea mays); [16]): 10
- Plant response rating, Corn (corn (Zea mays); [17]): 10
- Plant response rating, Corn (corn (Zea mays); [18]): 40
- Plant response rating, Corn (corn (Zea mays); [23]): 45
- Corn plant response rating (corn (Zea mays); [19]): 70
- Plant response rating, Corn (corn (Zea mays); [20]): 0
- Plant response rating, Corn (corn (Zea mays); [21]): 0
- Corn plant response rating (corn (Zea mays); [22]): 0
- Plant response rating, Velvetleaf [13, 16]: 100
- Plant response rating, Velvetleaf [13, 17]: 85
- Plant response rating, Velvetleaf [13, 18]: 90
- Plant response rating, Velvetleaf [13, 23]: 90
- Velvetleaf plant response rating [13, 19]: 100
- Plant response rating, Velvetleaf [13, 20]: 70
- Plant response rating, Velvetleaf [13, 21]: 98
- Velvetleaf plant response rating [13, 22]: 100
- Plant response rating, Foxtail, Green [14, 16]: 60
- Plant response rating, Foxtail, Green [14, 17]: 45
- Plant response rating, Foxtail, Green [14, 18]: 45
- Plant response rating, Foxtail, Green [14, 23]: 50
- Foxtail, Green plant response rating [14, 19]: 85
- Plant response rating, Foxtail, Green [14, 20]: 0
- Plant response rating, Foxtail, Green [14, 21]: 0
- Foxtail, Green plant response rating [14, 22]: 10
- Plant response rating, Lambsquarters [15, 16]: 100
- Plant response rating, Lambsquarters [15, 17]: 85
- Plant response rating, Lambsquarters [15, 18]: 85
- Plant response rating, Lambsquarters [15, 23]: 85
- Lambsquarters plant response rating [15, 19]: 85
- Plant response rating, Lambsquarters [15, 20]: 100
- Plant response rating, Lambsquarters [15, 21]: 100
- Lambsquarters plant response rating [15, 22]: 100
